Test results published in patent US20050080142A1 (priority 2003, published 2005).

Tests used:
Assay type in all cases: cell-based
[1] = system: Tetrahymena (Trophozoite)
[2] = system: Acanthamoeba (Trophozoite)
Acanthamoeba (Cyst) = system: Acanthamoeba (Cyst)

Row | Structure (SMILES) | Minimal Lethal Concentration, Tetrahymena (Trophozoite) [1] [µg/mL] | Minimal Lethal Concentration, Acanthamoeba (Trophozoite) [2] [µg/mL] | Minimal Lethal Concentration, Acanthamoeba (Cyst) (Acanthamoeba (Cyst)) [µg/mL]
1 | [H]/N=C(\N/C(=N/[H])NCCCCCCNC(=N)NC(=N)Nc1ccc(Cl)cc1)Nc1ccc(Cl)cc1 [Chlorhexidine] | 15 | 10 | 50
2 | CCCCCCCCCCCCNC(=N)N [Dodecylguanidine] | 10 | 25 | 40
3 | N=C(N)N [Guanidine] | 400 | 500 | 500
